Values belong to the molecule of their own block, whether it stands above or below them. Active and inactive are the calls of the source.
Columns and labels:
Type in all cases: functional
[1] = target: Melanin-concentrating hormone receptor 1 (Homo sapiens, UniProt Q99705); assay: Late-stage fluorescence-based counterscreen for antagonists of the G-protein coupled receptor 7 (GPR7): cell-based dose response assay to identify antagonists of the melanin-concentrating hormone receptor 1 (MCHR1) Set 6.
[2] = target: Neuropeptides B/W receptor type 1 (Homo sapiens, UniProt P48145); assay: GPR7 antagonist potency, late-stage follow-up, cell-based, fluorescence, dose response, set 6 (AID 588583)
Chain of Neuropeptides B/W receptor type 1 (P48145 whole entry): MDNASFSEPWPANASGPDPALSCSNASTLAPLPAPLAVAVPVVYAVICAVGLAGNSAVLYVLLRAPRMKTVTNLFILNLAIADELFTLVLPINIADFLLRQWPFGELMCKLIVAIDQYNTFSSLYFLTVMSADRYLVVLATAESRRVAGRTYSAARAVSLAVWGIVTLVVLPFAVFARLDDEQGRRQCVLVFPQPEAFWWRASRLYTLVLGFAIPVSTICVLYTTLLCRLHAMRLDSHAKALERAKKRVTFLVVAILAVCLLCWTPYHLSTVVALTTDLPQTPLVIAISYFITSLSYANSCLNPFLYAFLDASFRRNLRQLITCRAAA

[3] = Late-stage assay provider results from the probe development effort to identify agonists of the Sphingosine 1-Phosphate Receptor 3 (S1P3): luminescence-based cell-based dose response counterscreen assay to determine cytotoxicity of agonist compounds.
[4] = target: Sphingosine 1-phosphate receptor 2 (Homo sapiens, UniProt O95136); assay: Late-stage fluorescence-based dose-response cell-based counterscreen assay to identify agonists of the Sphingosine 1-Phosphate Receptor 3 (S1P3): Sphingosine 1-Phosphate Receptor 2 (S1P2) agonist assay.
[5] = target: Sphingosine 1-phosphate receptor 4 (Homo sapiens, UniProt O95977); assay: Late-stage fluorescence-based dose-response cell-based counterscreen assay to identify agonists of the Sphingosine 1-Phosphate Receptor 3 (S1P3): Sphingosine 1-Phosphate Receptor 4 (S1P4) agonist assay.
[6] = target: Sphingosine 1-phosphate receptor 5 (Homo sapiens, UniProt Q9H228); assay: Late-stage fluorescence-based dose-response cell-based counterscreen assay to identify agonists of the Sphingosine 1-Phosphate Receptor 3 (S1P3): Sphingosine 1-Phosphate Receptor 5 (S1P5) agonist assay.
[7] = target: Serine/threonine-protein kinase D3 (Homo sapiens, UniProt O94806);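 further: determined within a kinase panel screen, with PRKCN as the panel member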
Chain of Serine/threonine-protein kinase D3 (O94806 whole entry): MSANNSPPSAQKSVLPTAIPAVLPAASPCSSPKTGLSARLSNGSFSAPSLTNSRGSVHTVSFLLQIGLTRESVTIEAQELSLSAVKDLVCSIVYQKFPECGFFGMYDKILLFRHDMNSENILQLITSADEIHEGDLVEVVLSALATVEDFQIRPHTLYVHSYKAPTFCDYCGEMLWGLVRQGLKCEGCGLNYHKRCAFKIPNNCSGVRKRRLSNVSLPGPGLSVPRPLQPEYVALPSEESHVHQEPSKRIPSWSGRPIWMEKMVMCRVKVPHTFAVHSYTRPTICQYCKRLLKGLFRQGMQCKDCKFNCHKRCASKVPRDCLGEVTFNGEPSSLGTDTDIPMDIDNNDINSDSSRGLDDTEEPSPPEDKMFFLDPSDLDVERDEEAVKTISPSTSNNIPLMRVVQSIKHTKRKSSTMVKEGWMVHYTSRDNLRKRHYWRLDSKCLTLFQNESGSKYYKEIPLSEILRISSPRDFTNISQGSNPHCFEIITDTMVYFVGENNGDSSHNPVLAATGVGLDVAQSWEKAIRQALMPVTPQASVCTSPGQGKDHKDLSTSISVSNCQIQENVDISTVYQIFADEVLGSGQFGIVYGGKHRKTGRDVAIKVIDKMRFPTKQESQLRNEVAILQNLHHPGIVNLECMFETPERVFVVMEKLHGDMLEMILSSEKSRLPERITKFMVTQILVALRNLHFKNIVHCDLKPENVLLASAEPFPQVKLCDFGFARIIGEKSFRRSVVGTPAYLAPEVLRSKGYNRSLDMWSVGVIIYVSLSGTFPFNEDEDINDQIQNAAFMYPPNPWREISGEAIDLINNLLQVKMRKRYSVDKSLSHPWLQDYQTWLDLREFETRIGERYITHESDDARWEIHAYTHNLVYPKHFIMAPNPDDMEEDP

[8] = target: T1, Serine/threonine-protein kinase Chk1 (Homo sapiens, UniProt O14757);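 further: measured as one member of a kinome-wide kinase profiling panel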
T1 sequence (O14757 whole entry): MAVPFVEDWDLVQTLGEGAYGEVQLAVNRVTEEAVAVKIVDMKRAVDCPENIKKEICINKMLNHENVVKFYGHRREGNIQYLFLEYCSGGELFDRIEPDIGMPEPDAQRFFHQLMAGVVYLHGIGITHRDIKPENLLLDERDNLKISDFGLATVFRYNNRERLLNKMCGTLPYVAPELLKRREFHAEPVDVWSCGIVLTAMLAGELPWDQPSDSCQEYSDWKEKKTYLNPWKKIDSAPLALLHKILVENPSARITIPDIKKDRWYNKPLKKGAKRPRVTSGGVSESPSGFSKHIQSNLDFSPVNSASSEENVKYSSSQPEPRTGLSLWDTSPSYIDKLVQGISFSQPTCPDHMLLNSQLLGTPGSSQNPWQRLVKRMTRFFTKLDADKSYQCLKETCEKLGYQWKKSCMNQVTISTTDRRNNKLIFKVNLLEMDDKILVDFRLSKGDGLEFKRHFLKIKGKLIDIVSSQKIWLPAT

[9] = target: ALK tyrosine kinase receptor (Homo sapiens, UniProt Q9UM73);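 further: ALK tested as one member of a kinase panel screen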
Aurora kinase B = Aurora kinase B (Homo sapiens, UniProt Q96GD4)
Chain of Aurora kinase B (Q96GD4 whole entry): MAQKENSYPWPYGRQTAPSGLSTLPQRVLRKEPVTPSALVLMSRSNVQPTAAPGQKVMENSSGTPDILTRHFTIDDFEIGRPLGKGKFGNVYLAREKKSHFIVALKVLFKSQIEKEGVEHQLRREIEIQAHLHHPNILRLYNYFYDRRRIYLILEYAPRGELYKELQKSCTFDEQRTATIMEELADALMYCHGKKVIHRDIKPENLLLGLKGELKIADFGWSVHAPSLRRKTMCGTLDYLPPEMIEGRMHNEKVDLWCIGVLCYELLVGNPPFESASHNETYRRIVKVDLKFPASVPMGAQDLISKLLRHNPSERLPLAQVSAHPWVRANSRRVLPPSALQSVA

[10] = target: Glycogen synthase kinase-3 alpha (Homo sapiens, UniProt P49840);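 further: GSK3A result taken from a broad kinome-wide kinase panel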
Activin receptor type-1 = Activin receptor type-1 (Homo sapiens, UniProt Q04771); assay: Navigating the Kinome. Panel member name: ACVR1
Chain of Activin receptor type-1 (Q04771 whole entry): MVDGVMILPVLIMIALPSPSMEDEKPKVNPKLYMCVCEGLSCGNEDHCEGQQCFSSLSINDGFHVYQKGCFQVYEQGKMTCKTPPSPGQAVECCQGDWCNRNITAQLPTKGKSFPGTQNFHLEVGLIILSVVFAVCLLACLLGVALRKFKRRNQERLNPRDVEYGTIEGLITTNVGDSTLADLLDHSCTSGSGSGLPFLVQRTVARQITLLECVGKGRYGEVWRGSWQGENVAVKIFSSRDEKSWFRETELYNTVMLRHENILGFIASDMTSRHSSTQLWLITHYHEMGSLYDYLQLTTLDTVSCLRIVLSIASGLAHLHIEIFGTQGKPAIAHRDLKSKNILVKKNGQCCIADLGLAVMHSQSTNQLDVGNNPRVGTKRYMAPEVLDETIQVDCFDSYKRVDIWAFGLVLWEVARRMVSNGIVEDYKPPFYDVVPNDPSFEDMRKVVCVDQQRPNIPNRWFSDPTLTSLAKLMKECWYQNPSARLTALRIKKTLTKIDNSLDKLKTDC

Activated CDC42 kinase 1 = Activated CDC42 kinase 1 (Homo sapiens, UniProt Q07912); assay: Navigating the Kinome. Panel member name: ACK1
[11] = target: Tyrosine-protein kinase Fyn (Homo sapiens, UniProt P06241)
Chain of Tyrosine-protein kinase Fyn (P06241 whole entry): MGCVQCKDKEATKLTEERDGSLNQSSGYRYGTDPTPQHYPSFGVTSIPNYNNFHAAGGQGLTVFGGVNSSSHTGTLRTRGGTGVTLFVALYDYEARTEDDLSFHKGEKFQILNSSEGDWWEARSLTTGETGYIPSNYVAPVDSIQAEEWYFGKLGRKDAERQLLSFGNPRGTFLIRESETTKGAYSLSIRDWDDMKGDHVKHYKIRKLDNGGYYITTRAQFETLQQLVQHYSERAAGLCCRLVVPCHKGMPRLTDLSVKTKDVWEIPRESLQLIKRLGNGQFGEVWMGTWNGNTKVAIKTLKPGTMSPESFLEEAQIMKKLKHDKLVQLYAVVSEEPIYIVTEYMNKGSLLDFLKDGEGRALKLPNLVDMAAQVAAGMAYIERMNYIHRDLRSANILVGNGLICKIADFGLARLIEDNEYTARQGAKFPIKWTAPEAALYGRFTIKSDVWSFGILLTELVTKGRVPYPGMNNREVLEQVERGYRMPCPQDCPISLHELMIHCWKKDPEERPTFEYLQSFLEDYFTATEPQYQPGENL

[12] = target: Serine/threonine-protein kinase TAO1 (Homo sapiens, UniProt Q7L7X3)
[13] = target: Casein kinase I isoform alpha (Homo sapiens, UniProt P48729)
[14] = target: Calcium/calmodulin-dependent protein kinase type II subunit alpha (Homo sapiens, UniProt Q9UQM7); assay: Navigating the Kinome. Panel member name: CAMK2A
[15] = target: Death-associated protein kinase 3 (Homo sapiens, UniProt O43293);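 further: measured as one member of a kinome-wide profiling panel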
[16] = target: Mitogen-activated protein kinase kinase kinase kinase 4 (Homo sapiens, UniProt O95819)
[17] = target: Tyrosine-protein kinase Lck (Homo sapiens, UniProt P06239);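 further: lck was assayed as one member of a kinase panel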
[18] = target: Serine/threonine-protein kinase pim-1 (Homo sapiens, UniProt P11309)
Chain of Serine/threonine-protein kinase pim-1 (P11309 whole entry): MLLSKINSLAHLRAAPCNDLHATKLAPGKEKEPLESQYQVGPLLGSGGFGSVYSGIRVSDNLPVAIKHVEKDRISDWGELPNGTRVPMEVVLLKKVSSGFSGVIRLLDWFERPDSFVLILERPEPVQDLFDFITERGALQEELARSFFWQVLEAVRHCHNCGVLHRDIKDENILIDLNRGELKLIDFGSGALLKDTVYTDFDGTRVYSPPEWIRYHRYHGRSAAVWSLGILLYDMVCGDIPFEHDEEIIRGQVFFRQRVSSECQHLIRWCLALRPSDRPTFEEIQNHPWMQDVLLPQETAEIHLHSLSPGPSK

Focal adhesion kinase 1 = Focal adhesion kinase 1 (Homo sapiens, UniProt Q05397);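 further: measured as one member of a kinome panel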
Chain of Focal adhesion kinase 1 (Q05397 whole entry): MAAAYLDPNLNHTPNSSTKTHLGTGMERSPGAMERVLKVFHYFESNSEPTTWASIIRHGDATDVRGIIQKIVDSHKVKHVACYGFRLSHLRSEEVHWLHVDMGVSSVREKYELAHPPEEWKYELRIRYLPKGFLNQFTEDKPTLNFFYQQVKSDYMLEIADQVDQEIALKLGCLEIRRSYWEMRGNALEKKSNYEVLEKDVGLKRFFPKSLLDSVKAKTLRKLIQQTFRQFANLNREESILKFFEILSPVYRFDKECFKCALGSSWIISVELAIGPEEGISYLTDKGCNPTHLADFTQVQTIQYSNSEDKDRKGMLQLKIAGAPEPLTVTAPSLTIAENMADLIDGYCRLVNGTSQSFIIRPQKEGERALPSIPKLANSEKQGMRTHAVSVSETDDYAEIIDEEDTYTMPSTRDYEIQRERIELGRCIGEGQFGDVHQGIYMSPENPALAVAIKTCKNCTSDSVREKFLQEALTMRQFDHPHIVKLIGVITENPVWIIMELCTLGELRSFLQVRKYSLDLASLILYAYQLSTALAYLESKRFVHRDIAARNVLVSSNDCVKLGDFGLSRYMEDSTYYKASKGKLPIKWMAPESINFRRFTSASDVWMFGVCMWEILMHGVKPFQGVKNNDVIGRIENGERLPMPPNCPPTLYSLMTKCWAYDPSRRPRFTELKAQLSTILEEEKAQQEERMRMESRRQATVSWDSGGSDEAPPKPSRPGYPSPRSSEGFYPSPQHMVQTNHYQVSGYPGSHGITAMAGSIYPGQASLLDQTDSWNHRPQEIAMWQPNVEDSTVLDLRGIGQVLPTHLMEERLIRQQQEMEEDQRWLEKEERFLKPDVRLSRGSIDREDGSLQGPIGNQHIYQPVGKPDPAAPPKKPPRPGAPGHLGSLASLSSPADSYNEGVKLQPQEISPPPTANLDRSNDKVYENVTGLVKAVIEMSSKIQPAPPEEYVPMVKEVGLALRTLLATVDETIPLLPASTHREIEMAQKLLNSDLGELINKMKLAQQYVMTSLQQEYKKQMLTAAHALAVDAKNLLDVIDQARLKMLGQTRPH

[19] = target: Tyrosine-protein kinase BTK (Homo sapiens, UniProt Q06187)
[20] = target: Dual specificity protein kinase CLK2 (Homo sapiens, UniProt P49760)
[21] = target: Fibroblast growth factor receptor 1 (Homo sapiens, UniProt P11362)
Chain of Fibroblast growth factor receptor 1 (P11362 whole entry): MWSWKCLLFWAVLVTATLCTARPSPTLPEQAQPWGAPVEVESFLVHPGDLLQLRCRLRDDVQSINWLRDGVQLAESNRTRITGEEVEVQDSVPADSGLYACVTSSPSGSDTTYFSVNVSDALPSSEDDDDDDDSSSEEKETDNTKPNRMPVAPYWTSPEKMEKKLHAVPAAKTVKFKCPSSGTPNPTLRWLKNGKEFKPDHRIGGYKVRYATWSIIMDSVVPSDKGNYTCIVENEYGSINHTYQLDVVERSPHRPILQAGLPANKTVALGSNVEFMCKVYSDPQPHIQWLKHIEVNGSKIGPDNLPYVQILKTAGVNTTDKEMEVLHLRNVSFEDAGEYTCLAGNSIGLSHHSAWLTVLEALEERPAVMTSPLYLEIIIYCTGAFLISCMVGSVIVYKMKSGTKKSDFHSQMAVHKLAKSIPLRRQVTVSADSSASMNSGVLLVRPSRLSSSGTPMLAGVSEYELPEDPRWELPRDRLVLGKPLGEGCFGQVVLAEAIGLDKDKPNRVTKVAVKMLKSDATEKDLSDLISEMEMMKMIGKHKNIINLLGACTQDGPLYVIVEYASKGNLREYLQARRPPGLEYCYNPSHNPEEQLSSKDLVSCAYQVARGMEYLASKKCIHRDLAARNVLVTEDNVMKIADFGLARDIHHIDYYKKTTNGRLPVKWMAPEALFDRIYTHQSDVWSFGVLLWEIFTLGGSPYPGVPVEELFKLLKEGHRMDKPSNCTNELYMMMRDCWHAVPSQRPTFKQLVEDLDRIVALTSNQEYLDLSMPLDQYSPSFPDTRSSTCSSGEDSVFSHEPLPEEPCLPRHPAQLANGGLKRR

[22] = target: Serine/threonine-protein kinase PAK 4 (Homo sapiens, UniProt O96013);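 further: value obtained within a kinome profiling panel in which PAK4 was one of the panel members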
[23] = target: Mitogen-activated protein kinase 14 (Homo sapiens, UniProt Q16539);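 further: part of a kinome-wide panel, MAPK14 entry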
[24] = target: Cyclin-dependent kinase 8 (Homo sapiens, UniProt P49336); assay: Navigating the Kinome. Panel member name: CDK8
[25] = target: Cyclin-dependent kinase 7 (Homo sapiens, UniProt P50613);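 further: value comes from a kinome-wide kinase profiling panel in which CDK7 is one member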
[26] = target: T2, Tyrosine-protein kinase JAK3 (Homo sapiens, UniProt P52333)
T2 sequence (P52333 whole entry): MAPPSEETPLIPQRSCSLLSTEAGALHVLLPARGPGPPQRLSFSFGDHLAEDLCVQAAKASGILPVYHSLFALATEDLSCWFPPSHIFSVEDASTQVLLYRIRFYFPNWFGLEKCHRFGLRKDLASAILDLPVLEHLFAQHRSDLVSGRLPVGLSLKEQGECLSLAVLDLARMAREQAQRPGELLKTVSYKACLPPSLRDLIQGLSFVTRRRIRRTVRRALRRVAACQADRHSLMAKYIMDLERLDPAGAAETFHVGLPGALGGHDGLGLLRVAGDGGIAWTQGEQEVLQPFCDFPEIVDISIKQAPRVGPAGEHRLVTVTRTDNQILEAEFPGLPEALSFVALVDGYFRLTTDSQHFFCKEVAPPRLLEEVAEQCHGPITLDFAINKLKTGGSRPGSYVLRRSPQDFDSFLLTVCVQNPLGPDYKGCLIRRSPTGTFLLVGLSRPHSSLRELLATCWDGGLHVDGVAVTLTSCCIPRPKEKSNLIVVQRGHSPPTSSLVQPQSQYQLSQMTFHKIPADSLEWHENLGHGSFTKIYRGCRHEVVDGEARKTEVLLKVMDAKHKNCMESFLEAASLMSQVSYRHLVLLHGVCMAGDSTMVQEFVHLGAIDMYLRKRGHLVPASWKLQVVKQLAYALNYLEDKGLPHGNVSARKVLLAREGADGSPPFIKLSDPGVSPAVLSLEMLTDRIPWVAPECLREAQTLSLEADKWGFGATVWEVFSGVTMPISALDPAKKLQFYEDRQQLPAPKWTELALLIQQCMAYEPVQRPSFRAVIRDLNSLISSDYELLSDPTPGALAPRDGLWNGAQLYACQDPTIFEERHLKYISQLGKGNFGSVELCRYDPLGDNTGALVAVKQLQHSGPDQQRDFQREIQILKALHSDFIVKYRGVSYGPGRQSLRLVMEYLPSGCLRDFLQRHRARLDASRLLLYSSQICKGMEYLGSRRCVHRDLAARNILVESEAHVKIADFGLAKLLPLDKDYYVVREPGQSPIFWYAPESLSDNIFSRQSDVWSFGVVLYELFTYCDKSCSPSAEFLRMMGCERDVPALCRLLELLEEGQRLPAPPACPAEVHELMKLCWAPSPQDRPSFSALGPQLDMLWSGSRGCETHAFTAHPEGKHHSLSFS

[27] = target: G protein-coupled receptor kinase 5 (Homo sapiens, UniProt P34947); assay: Navigating the Kinome. Panel member name: GPRK5
[28] = target: Mitogen-activated protein kinase 8 (Homo sapiens, UniProt P45983);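 further: value comes from one member of a kinome-wide kinase profiling panel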

IC50 [1]: > 20 µM (inactive) | IC50 [2]: > 20 µM (inactive)
Structure (SMILES): COc1ccc(Oc2c(Cl)cnn(Cc3ccccc3C(=O)O)c2=O)cc1

EC50 [4]: > 50 µM (inactive) | EC50 [5]: > 50 µM (inactive) | EC50 [6]: > 25 µM (inactive)
Structure (SMILES): O=C(c1cc(C2CC2)on1)N(C1CCCCC1)C1CCCCC1
CC50 [3]: > 10 µM (inactive)

Ki [7]: > 3.98 µM (inactive) | Ki [8]: 0.398 µM (active) | Ki [9]: > 6.31 µM (inactive) | Ki (Aurora kinase B): > 3.98 µM (inactive) | Ki [10]: > 3.98 µM (inactive) | Ki (Activin receptor type-1): > 3.98 µM (inactive) | Ki (Activated CDC42 kinase 1): > 3.98 µM (inactive) | Ki [11]: > 6.31 µM (inactive) | Ki [12]: > 6.31 µM (inactive) | Ki [13]: > 3.98 µM (inactive) | Ki [14]: > 3.98 µM (inactive) | Ki [16]: > 5.01 µM (inactive) | Ki [17]: > 6.31 µM (inactive) | Ki [18]: > 6.31 µM (inactive) | Ki (Focal adhesion kinase 1): > 6.31 µM (inactive) | Ki [19]: > 6.31 µM (inactive) | Ki [20]: > 3.98 µM (inactive) | Ki [21]: > 3.98 µM (inactive) | Ki [22]: > 5.01 µM (inactive) | Ki [23]: > 3.98 µM (inactive) | Ki [24]: > 3.98 µM (inactive) | Ki [25]: > 3.98 µM (inactive) | Ki [26]: > 5.01 µM (inactive) | Ki [27]: > 3.98 µM (inactive) | Ki [28]: > 5.01 µM (inactive)
Structure (SMILES): CCOC(=O)Cc1nc2c(N)cccc2[nH]1
Ki [15]: > 5.01 µM (inactive)

Source: ChEMBL document CHEMBL1201862, “PubChem BioAssay data set” (2004)
